For one assay, the species on record is Mus musculus. The assay is described as follows: Concentration that induces 30% utriculi reduction in rhino mouse. It is filed as functional.
Assay [1] has as its target T1, Retinoic acid receptor alpha (Homo sapiens) (UniProt P10276).
T1 sequence (whole entry): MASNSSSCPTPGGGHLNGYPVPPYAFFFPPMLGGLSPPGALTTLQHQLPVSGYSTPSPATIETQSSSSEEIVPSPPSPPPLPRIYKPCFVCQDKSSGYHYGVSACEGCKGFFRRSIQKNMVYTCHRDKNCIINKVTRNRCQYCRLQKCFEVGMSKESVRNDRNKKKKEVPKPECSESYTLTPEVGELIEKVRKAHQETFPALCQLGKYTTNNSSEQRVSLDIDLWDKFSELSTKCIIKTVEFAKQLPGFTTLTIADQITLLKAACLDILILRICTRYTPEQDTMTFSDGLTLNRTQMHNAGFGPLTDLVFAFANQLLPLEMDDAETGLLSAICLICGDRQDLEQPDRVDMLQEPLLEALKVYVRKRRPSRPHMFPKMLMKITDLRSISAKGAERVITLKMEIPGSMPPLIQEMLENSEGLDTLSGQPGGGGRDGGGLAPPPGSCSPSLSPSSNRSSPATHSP
The assay is described as follows: Transcriptional activation of retinoic acid RAR-alpha receptor; Not active.

Assay [2] concerns the target T2, Retinoic acid receptor beta (Homo sapiens) (UniProt P10826).
T2 sequence (whole entry): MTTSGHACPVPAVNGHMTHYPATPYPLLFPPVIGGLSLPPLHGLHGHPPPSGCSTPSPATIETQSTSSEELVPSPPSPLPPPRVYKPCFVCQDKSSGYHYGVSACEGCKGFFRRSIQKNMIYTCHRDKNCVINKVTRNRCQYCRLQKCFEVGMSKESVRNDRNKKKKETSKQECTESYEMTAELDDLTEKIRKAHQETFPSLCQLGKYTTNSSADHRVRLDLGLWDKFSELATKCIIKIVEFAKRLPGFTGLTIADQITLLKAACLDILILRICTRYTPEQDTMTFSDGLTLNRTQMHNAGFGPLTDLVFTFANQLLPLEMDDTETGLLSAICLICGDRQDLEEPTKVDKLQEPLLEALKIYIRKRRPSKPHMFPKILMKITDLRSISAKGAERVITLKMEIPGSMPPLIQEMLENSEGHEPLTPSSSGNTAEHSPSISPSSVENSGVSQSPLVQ
The assay is described as follows: Transcriptional activation of retinoic acid RAR-beta receptor; Not active.

Assay [3] deals with T3, Retinoic acid receptor gamma (Homo sapiens) (UniProt P13631).
T3 sequence (whole entry): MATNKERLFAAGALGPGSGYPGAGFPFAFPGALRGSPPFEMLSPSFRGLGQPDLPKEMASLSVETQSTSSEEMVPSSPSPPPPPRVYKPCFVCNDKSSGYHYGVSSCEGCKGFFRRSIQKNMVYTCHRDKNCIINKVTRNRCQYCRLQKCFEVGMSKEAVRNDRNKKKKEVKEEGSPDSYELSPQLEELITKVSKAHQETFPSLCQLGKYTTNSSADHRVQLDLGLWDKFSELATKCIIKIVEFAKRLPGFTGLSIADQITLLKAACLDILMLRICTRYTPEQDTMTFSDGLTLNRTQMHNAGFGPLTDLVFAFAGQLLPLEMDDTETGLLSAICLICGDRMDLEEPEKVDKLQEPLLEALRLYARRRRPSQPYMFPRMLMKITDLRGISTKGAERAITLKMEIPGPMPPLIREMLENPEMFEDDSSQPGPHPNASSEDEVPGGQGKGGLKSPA
The assay is described as follows: Transcriptional activation of retinoic acid RAR-gamma receptor; Not active.

Activity calls are given as the source filed them. The calls are words filed in the database; no cut-off is given here.

In the assay listed under Mus musculus, `C/C(=C\c1ccc(C(=O)c2ccc3c(c2)C(C)(C)CCC3(C)C)cc1)C(=O)O` gave an ED30 of 92 µM. Consider `CC1(C)CCC(C)(C)c2cc(C(O)c3ccc(/C=C/C(=O)O)cc3)ccc21` (stereo unspecified), for which the EC50 ratio result in assay [1], in assay [2] and in assay [3] was “inactive” throughout. This compound also had an ED30 in the assay filed under Mus musculus of 1740 µM. In the case of `CC1(C)CCC(C)(C)c2cc(C(=O)c3ccc(C#CC(=O)O)cc3)ccc21`, the EC50 ratio entry in assay [1] was “inactive”. The ED30 in the assay filed under Mus musculus is 1000 µM. As to `Cc1cc(C(=O)c2ccc3c(c2)C(C)(C)CCC3(C)C)ccc1/C=C/C(=O)O`, in assay [1], the EC50 ratio entry is “inactive”. In the assay filed under Mus musculus, this compound displayed an ED30 of 184 µM. For `CC1(C)CCC(C)(C)c2cc(C(O)/C=C/c3ccc(C(=O)O)cc3)ccc21` (stereo unspecified), the ED30 in the assay listed under Mus musculus was determined as 65 µM.

In the case of `CC1(C)CCC(C)(C)c2cc(C(=O)c3cccc(/C=C/C(=O)O)c3)ccc21`, the EC50 ratio entry in assay [1] and in assay [2] was “inactive” throughout. Turning to `C/C(=C\C(=O)O)c1ccc(C(=O)c2ccc3c(c2)C(C)(C)CCC3(C)C)cc1`, in assay [1], the EC50 ratio result is “inactive”. In the case of `CC1(C)CCC(C)(C)c2cc(C(=O)/C=C/c3ccc(C(=O)O)cc3)ccc21`, in the assay filed under Mus musculus, the ED30 was found to be 3.4 µM.

Consider `CC1(C)CCC(C)(C)c2cc(C(=O)c3ccc4cc(C(=O)O)ccc4c3)ccc21`, for which the ED30 in the assay listed under Mus musculus was found to be 29 µM. As to `CC1(C)CCC(C)(C)c2cc(C(O)c3cccc(/C=C/C(=O)O)c3)ccc21` (stereo unspecified), the EC50 ratio entry in assay [1], in assay [2] and in assay [3] was “inactive” each time. `CC1(C)CCC(C)(C)c2cc(C(=O)c3ccc(/C=C/C(=O)O)cc3)ccc21` registered an ED30 in the assay filed under Mus musculus of 54 µM.

Turning to `CC1(C)CCC(C)(C)c2cc(C(=O)c3ccc(/C=C\C(=O)O)cc3)ccc21`, in assay [1], the EC50 ratio result was “inactive”. The compound `CC1(C)CCC(C)(C)c2cc(C(O)c3ccc4cc(C(=O)O)ccc4c3)ccc21` (stereo unspecified) gave an ED30 in the assay listed under Mus musculus of 223 µM.

These data come from ChEMBL document CHEMBL1129721, “Application of the Heck reaction in the synthesis of truncated naphthoic acid retinoids” (1996).
